Data: a melting point compilation (Tetko et al.; mined from patent text by program, amines drawn as free bases though some values may be those of a salt)

SMILES | melting point [°C]
O=C(Cl)C1CCCCC1 | 41 to 42
O=C1C=CC(=O)C(C(=O)CCn2sc(Cl)cc2=O)=C1 | 181 to 183
Clc1ccc(C(Cl)(Cl)Cl)cn1 | 51 to 54
Clc1nc2cc3c(cc2s1)OCO3 | 131 to 132
CCOC(=O)C=Cc1cn(CCCC2(C)OCCO2)c2ccccc12 | 61 to 62
O=C(O)C1=CSC2C(=Cc3cc4c(s3)-c3cccnc3SC4)C(=O)N12 (stereo not given) | 113 to 115
CNCc1cn(S(=O)(=O)c2ccccc2)c(-c2cccnc2F)c1F | 128
CCOC(=O)CN1CCN(c2ccc(C#N)cc2)CC1=O | 108
O=C(NC[C@@H](C(=O)NO)N1CCOCC1)c1ccc(OCc2ccnc(-c3cccc(C(F)(F)F)c3)c2)cc1 | 151
COC(=O)c1cccc(NC(=O)Oc2ccc([N+](=O)[O-])cc2)c1 | 184 to 186
CS(=O)(=O)c1cc(C(=O)N=C(N)N)cc(-n2cccc2)c1 | 235 to 236
O=C(OC1C(=O)NC1c1ccccc1)c1ccccc1 (stereo not given) | 118 to 119
CC(=O)OC1CCCc2cnc3cc(OCc4ccccc4)ccc3c21 (stereo not given) | 70 to 72
COC(=O)[C@H]1CCc2c(OC)cccc2[C@@H]1O | 87 to 88
COc1ccc(C(C)(C)C)cc1S(N)(=O)=O | 156 to 158
O=[N+]([O-])c1ccc2c(c1)COC(c1ccccc1F)O2 (stereo not given) | 137 to 138
c1ccc(-c2ccc3nc4c(nc3c2)-c2cccc3cccc-4c23)cc1 | 194 to 195
CC(Sc1cc2ccccc2[nH]1)(C(=O)OCc1ccccc1)c1ccccc1 (stereo not given) | 102 to 103
Cc1nn(CC(=O)COCc2ccccc2)c(-c2ccc(F)cc2)c1-c1ccc2c(c1)NC(=O)CO2 | 154 to 155
COC1=C(OC)C(=O)C(CCCCCCCCCO)=C(C)C1=O | 45
COc1ccc(-n2nc(C(F)F)cc2-c2ccc(S(C)=O)cc2)cc1 (stereo not given) | 123 to 124
CSC(Nc1ccc2c(c1)OCO2)=C(C#N)C(=O)C(C)(C)C | 139 to 141
O=C(O)CC1(CC(O)=NO)CCCCCC1 | 90 to 100
CCCCCCCCCCCCn1nnc(CCC(=O)Nc2c(C(C)C)cccc2C(C)C)n1 | 41 to 43
O=C(O)CC1CC(c2ccccc2)c2ccccc21 (stereo not given) | 126 to 129

SMILES | melting point [°C]
O=c1c2ccccc2nc(-c2sc(Nc3ccccc3)nc2-c2ccccc2)n1-c1ccccc1 | 181 to 182
O=C1Nc2cc(Cl)ccc2C(=O)C1c1ccncc1 (stereo not given) | > 330
CNc1cccc([N+](=O)[O-])c1N | 93
Cn1ncnc1COc1nc2c(-c3cc(F)ccc3F)nncn2c1-c1ccccc1 | 200
COC(=O)/C(=C/c1ccc(OCCN(C)c2nc3ccccc3o2)cc1)OCC(=O)O | 111 to 112
CCCCCCCCCCCCc1ccccc1C(SCCCC(=O)O)C(=O)O (stereo not given) | 58 to 59
O=C(O)c1oc(=O)c2ccccc2c1-c1ccc(F)cc1 | 218 to 220
C=CC(=O)CCC1=CC(=O)NC1=O | 77 to 78
Nc1cc(N)c(SCCO)cc1SCCO | 144
CCC1(CCCN2CCc3sccc3C2)C(=O)Nc2ccc(Cl)cc21 (stereo not given) | 66 to 69
NC(=O)c1cc(Oc2ccc(C(F)(F)F)cc2Cl)ccc1[N+](=O)[O-] | 139 to 143
COc1cc(OC)nc(N2CCN(Cc3ccc(CNC(C)=O)cc3)CC2)n1 | 130 to 131
CCC(=O)NCCC1=CCc2ccc(OC)cc21 | 61 to 63
CCOC(=O)COc1cc(OCc2ccccc2)ccc1C(=O)CC | 81.5 to 82
Cn1ncc2c(=S)n3c(nc21)SCC3 | 199 to 200
CSc1ccc(-c2cc(C(C)C)nc(N)n2)c2ccccc12 | 139 to 140
COC(=O)C=CCCC(C)C1CCC2C3CCC4CC(OC=O)CCC4(C)C3CC(OC=O)C12C (stereo not given) | 112 to 115
OCC1Cc2c(c(Br)cc3c(-c4ccccc4)noc23)O1 (stereo not given) | 164 to 166
COC1=CC23CCN(C)C(Cc4ccc(OC)c(Oc5ccccc5)c42)C3=CC1C (stereo not given) | 177 to 178
Cn1nc(-c2nc(C(N)=O)c(N)nc2-c2ccccc2)ccc1=O | > 250
CCc1ccc(-c2sc(NC(=O)c3ccc(S(=O)(=O)N4CCCC4C(=O)O)cc3)nc2-c2ccc(Cl)cc2)cc1 (stereo not given) | 289 to 292
Cc1ccc(OS(=O)(=O)c2ccc(N3CCN(C)C3=O)cc2)cc1 | 155 to 157
O=[N+]([O-])c1ccc2[nH]cc(C3=CCN(CC4CC4)CC3)c2c1 | 187 to 188
Fc1cc(F)c(-c2c(Cl)nc(-n3ccnc3)nc2Cl)c(F)c1 | 72 to 74
CP(=O)(O)C(O)C(CN)c1ccc(Cl)cc1 (stereo not given) | 240 to 241

SMILES | melting point [°C]
COc1ccc(OCCCCCCCc2cc(C)no2)c([N+](=O)[O-])c1 | 51
CCOc1cccc2oc(C(N)=O)cc12 | 113
CC(C)Oc1cc(/C=C/C(=O)O)n(Cc2ccc(Cl)cc2Cl)n1 | 170 to 171
CN(C)c1ccc2cc(Cl)cnc2c1C#N | 174
CCCCCCCCCC(=O)N(O)CCCCCC | 37
CN(C(=O)N1Cc2nc(C(O)c3ccccc3)n(Cc3ccccc3)c2CC1CO)c1ccccc1 (stereo not given) | 107 to 120
CN1CCN(c2ncnc3c(N)cccc23)C1=O | 187 to 189
CN(C(N)=O)c1cc(C(C)(C)C)on1 | 134 to 135
CSc1ccc(-c2nc(=O)c3ccccc3s2)cn1 | 168 to 170
O=C(O)CN(CC(=O)O)C(=O)c1cc(OCCCCCCCCCCCCOc2ccccc2)ccc1OCc1ccccc1 | 70 to 75
O=C(Nc1ccccc1)c1c(C(=S)Nc2ccccc2)cccc1-c1ccccc1 | 150 to 152
O=C1c2cscc2Nc2ccccc2N1Cc1ccc(Cl)c(C(F)(F)F)c1 | 181 to 183
CC1(C)C(=O)Oc2ccc(OS(C)(=O)=O)cc21 | 120 to 121
CNc1cc(N(C)S(=O)(=O)c2ccc(N)cc2)nc(NC)n1 | 79 to 80
O=C(COc1ccccc1)NCCc1ccc(S(=O)(=O)NC(=O)c2ccc(C(=O)NCCO)nc2)cc1 | 155 to 156
COc1ccc(Cn2c(Cl)nc3c(Cl)ncnc32)cc1 | 110 to 112
COc1ccn(O)c(=O)c1 | 174 to 175
Cn1ncc2c3[nH]n(-c4ccc(S(N)(=O)=O)cc4)c(=O)c3c(-c3cccc(C(F)(F)F)c3)nc21 | 272 to 274
CCOC(=O)C(C#N)=C1CC(C)(C)c2cc(OC)c(OC)cc21 | 148 to 149
O=C(c1ccc(OCCN2CCCCC2)cc1)c1c(-c2ccc(O)cc2)sc2ccccc12 | 100 to 103
CC(C)(C)OC(=O)Nc1ccc(C#Cc2ccccn2)cc1[N+](=O)[O-] | 142 to 144
O=C(O)Cc1c(Cl)nc(-c2ccccc2)n1Cc1ccc(O)cc1 | 196 to 199
CCOC(=O)c1c(OC(C)=O)c2ccccc2c2nc3ccccc3nc12 | 195 to 196
Nc1c(F)c(N2CCCC2)c(F)c2c1c(=O)c(C(=O)O)cn2C1COC1 | 250 to 253
Cn1c(Cl)cnc1C(c1cc(F)ccc1F)S(=O)(=O)c1ccc(Cl)cc1 (stereo not given) | 179 to 180
